≈ marks a conversion by molar mass, not a printed value. Like-named read-outs stand apart in the source and are kept apart here.
How the values were obtained:
[1] = tested on: Enterococcus faecalis (EFA); experiment: MIC, two-fold agar dilution (CLSI), clinical isolates; assay type: cell-based
How it was run: (§1)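 Susceptibility was tested using CLSI two-fold agar dilution against the strains examined.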

[2] = tested on: Escherichia coli (including ESBLs, non-ESBLs); experiment: as above; assay type: cell-based
How it was run: as §1

[3] = tested on: methicillin-resistant Staphylococcus aureus (MRSA); experiment: as above; assay type: cell-based
How it was run: as §1

[4] = tested on: methicillin-resistant Staphylococcus epidermidis (MRSE); experiment: as above; assay type: cell-based
How it was run: as §1

[5] = tested on: methicillin-sensitive Staphylococcus aureus (MSSA); experiment: as above; assay type: cell-based
How it was run: as §1

[6] = tested on: methicillin-sensitive Staphylococcus epidermidis (MSSE); experiment: as above; assay type: cell-based
How it was run: as §1

[7] = tested on: HCT-116 colorectal cancer cell line; experiment: CCK-8 proliferation inhibition; assay type: cell-based
How it was run: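 Cells seeded at 2000 cells/well, cultured overnight at 37 °C, 5% CO2, then exposed to compound (DMSO; control 1‰ DMSO) for 72 h in McCoy's 5A with 10% newborn bovine serum. Viability read with 1:10 diluted CCK-8.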

[8] = tested on: methemoglobin in blood samples of three healthy volunteers; experiment: Toxicity on methemoglobin in vitro (whole blood with S9 and NADPH, absorbance at 630 nm); assay type: cell-based, human; settings: for MetHb % (n = 3): 500 μM compound, whole blood + S9 + NADPH, 5 hours at 37° C.; for probability of methemoglobin formation in blood compared with the control drugs LBM415 and GSK1322322: toxicity test in vitro, in words
Description: Because PDF inhibitors such as LBM415 and GSK1322322 can produce active species such as aromatic hydroxylamine and aromatic hydrazines in metabolic process, and cause human methemoglobinemia. To this end, continuous wavelength method was adopted in this invention to scan the absorption spectrum of blood samples in the wavelength range of 500 to 700 nm in the ultraviolet-visible spectrophotometer, and the contents of methemoglobin in blood samples of three healthy volunteers were calculated, after being effected by the synthesized compounds.
Experimental materials: Nicotinamide adenine dinucleotide phosphate (NADPH) reduction system: glucose-6-disodium phosphate, nicotinamide adenine dinucleoside phosphate and glucose-6-phosphate dehydrogenase (purchased from Shanghai yuanye Bio-Technology Co., Ltd) were added to 1 mL of phosphate buffer solution (PBS, pH 7.4), and the mixture was shaked in a shaker type water bath at 37° C. for 10 min, and then cooled to 0° C. Mixed human hepatocytes fraction S9 was purchased from Xenotech (20 mg S9 protein/1 mL suspension medium). Compounds were prepared to stock solution at a concentration of 50 mM, which was stored at −20° C. for use. Dapsone was used as positive control experimental reagent, which was purchased from Sigma Aldrich. 1% w/v triton X-100 was self-prepared. Blood samples were collected using Vacutainer tubes containing EDTA anticoagulants (BD, Franklin Lakes, USA), which were sampled from three healthy volunteers and used immediately after sampling.
Preparation of incubation system for blood samples and drugs: 250 μL of incubation system was consist of 220 μL of whole blood, 25 μL of S9 (final concentration: 2 mg S9 protein/mL incubation solution), 2.5 μL of NADPH form system (final concentration: 10 mM G-6-P, 1 mM NADP, 7.5 Units/mL) and 2.5 μL of stock solution of a compound (final concentration 500 μM). […] of incubation system was placed in an Eppendorf tube and incubated for 5 hours at 37° C. in water bath.
Determination of the content of methemoglobin: 60 μL of an incubated sample was taken and lysed with 3.0 mL of 1% Triton X-100. The content of methemoglobin (MetHb) was measured by an ultraviolet-visible spectrophotometer, with the Triton X-100 solution used as blank control. A sample was placed in a cuvette, 1 minute later, the spectrums of the sample in the wavelength range from 500 nm to 700 nm were recorded. The sample was added with 2 mg of potassium ferricyanide, and was allowed to stay stationary for 2 minutes for completely oxidization of ferrous iron in the sample, and standard spectrum of methemoglobin with saturated potassium ferricyanide. The percentage of methemoglobin formation (MetHb %) was obtained by the ratio of absorbance at 630 nm. MetHb %=(A′−AB′)/AM′, wherein, A′ was the total absorbance of the sample at 630 nm, AB′ was the base absorbance of the reduced blood in the sample at 630 nm, and AM′ was the absorbance of oxidized blood with saturated potassium ferricyanide at 630 nm.

[9] = MIC in vitro anti-bacterial experiments, Gram-positive bacteria; assay type: cell-based; settings: read-out: minimum inhibitory concentration against Gram-positive bacteria
How it was run: as §1

[10] = tested on: A549 lung cancer cell line; experiment: CCK-8 proliferation inhibition; assay type: cell-based; settings: Homo sapiens, A549, 72 h, concentration of 30 μM
How it was run: (§2)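 Plating at 2000 cells/well, then incubation overnight at 37° C. Next, a range of compound concentrations for 72 hours (control 1‰ DMSO). Finally, medium decanted and CCK-8 diluted 1:10 added.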

[11] = tested on: BEL-7402 liver cancer cell line; experiment: CCK-8 proliferation inhibition; assay type: cell-based; settings: concentration of 30 μM, 72 hours, 30 µM
How it was run: as §2

[12] = tested on: MGC-803 gastric cancer cell line; experiment: CCK-8 proliferation inhibition; assay type: cell-based; settings: concentration of 30 μM
How it was run: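 Cells seeded at 2000 cells/well, cultured overnight at 37 °C, 5% CO2, then exposed 72 h to compound dilutions in medium with 10% newborn bovine serum (1‰ DMSO control). Viability read with 1:10 diluted CCK-8 solution. Media: PC3 in F12; MGC-803 and Jurkat in 1640; MCF-7 in DMEM high glucose.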

[13] = strain printed MRSA 14-1 (second line of that name, r23, before MRSE 14-2)

## CCCC[C@H](CN(O)C=O)C(=O)N1CC2(CC2)C[C@H]1C(=O)Nc1cc(C(C)(C)C)on1 [Example 3]
[1]; strain EFA 14-1
  MIC (anti-bacterial activity): 0.5 µg/mL (≈ 1.15 µM)
[1]; strain EFA 14-2
  MIC (anti-bacterial activity): 0.5 µg/mL (≈ 1.15 µM)
[1]; strain EFA 14-3
  MIC (anti-bacterial activity): 0.5 µg/mL (≈ 1.15 µM)
[1]; strain EFA 14-5
  MIC (anti-bacterial activity): > 128 µg/mL
[2]; strain ECO+ 14-1
  MIC (anti-bacterial activity): 1 µg/mL (≈ 2.3 µM)
[2]; strain ECO+ 14-2
  MIC (anti-bacterial activity): 64 µg/mL (≈ 147 µM)
[2]; strain ECO− 14-1
  MIC (anti-bacterial activity): 64 µg/mL (≈ 147 µM)
[2]; strain ECO− 14-2
  MIC (anti-bacterial activity): 64 µg/mL (≈ 147 µM)
[3]; strain MRSA 14-1
  MIC (anti-bacterial activity): 0.06 µg/mL (≈ 0.138 µM)
[3]; strain MRSA 14-2
  MIC (anti-bacterial activity): 0.06 µg/mL (≈ 0.138 µM)
[3]; strain MRSA 14-4
  MIC (anti-bacterial activity): < 0.008 µg/mL
[3]; strain MRSA 14-5
  MIC (anti-bacterial activity): 0.06 µg/mL (≈ 0.138 µM)
[3]; [13]
  MIC (anti-bacterial activity): 0.03 µg/mL (≈ 0.069 µM)
[4]; strain MRSE 14-2
  MIC (anti-bacterial activity): 0.03 µg/mL (≈ 0.069 µM)
[4]; strain MRSE 14-3
  MIC (anti-bacterial activity): 0.015 µg/mL (≈ 0.0345 µM)
[4]; strain MRSE 14-4
  MIC (anti-bacterial activity): 0.03 µg/mL (≈ 0.069 µM)
[5]; strain MSSA 14-1
  MIC (anti-bacterial activity): 0.125 µg/mL (≈ 0.288 µM)
[5]; strain MSSA 14-2
  MIC (anti-bacterial activity): 0.125 µg/mL (≈ 0.288 µM)
[5]; strain MSSA 14-3
  MIC (anti-bacterial activity): 0.25 µg/mL (≈ 0.575 µM)
[5]; strain MSSA 14-4
  MIC (anti-bacterial activity): 0.06 µg/mL (≈ 0.138 µM)
[6]; strain MSSE 14-1
  MIC (anti-bacterial activity): 0.03 µg/mL (≈ 0.069 µM)
[6]; strain MSSE 14-2
  MIC (anti-bacterial activity): 0.125 µg/mL (≈ 0.288 µM)
[6]; strain MSSE 14-3
  MIC (anti-bacterial activity): 0.015 µg/mL (≈ 0.0345 µM)
[6]; strain MSSE 14-4
  MIC (anti-bacterial activity): 0.015 µg/mL (≈ 0.0345 µM)
[7]; Homo sapiens, HCT-116, 72 h, read-out: HCT116 inhibition rate/%
  inhibition at 30 µM: 2%
[8]
  MetHb % (n = 3): 3.33 ± 0.06%
  probability of methemoglobin formation in blood compared with the control drugs LBM415 and GSK1322322: lower probability of methemoglobin formation in blood
[9]
  MIC: < 0.008 µg/mL

## CCCC[C@H](CN(O)C=O)C(=O)N1CC2(CC2)C[C@H]1C(=O)Nc1ncc(C)s1 [Example 6]
[1]; strain EFA 14-1
  MIC (anti-bacterial activity): 0.125 µg/mL (≈ 0.306 µM)
[1]; strain EFA 14-2
  MIC (anti-bacterial activity): 0.5 µg/mL (≈ 1.22 µM)
[1]; strain EFA 14-3
  MIC (anti-bacterial activity): 0.5 µg/mL (≈ 1.22 µM)
[1]; strain EFA 14-5
  MIC (anti-bacterial activity): 0.25 µg/mL (≈ 0.612 µM)
[2]; strain ECO+ 14-1
  MIC (anti-bacterial activity): 0.125 µg/mL (≈ 0.306 µM)
[2]; strain ECO+ 14-2
  MIC (anti-bacterial activity): 32 µg/mL (≈ 78.3 µM)
[2]; strain ECO− 14-1
  MIC (anti-bacterial activity): 32 µg/mL (≈ 78.3 µM)
[2]; strain ECO− 14-2
  MIC (anti-bacterial activity): 32 µg/mL (≈ 78.3 µM)
[3]; strain MRSA 14-1
  MIC (anti-bacterial activity): < 0.008 µg/mL
[3]; strain MRSA 14-2
  MIC (anti-bacterial activity): < 0.008 µg/mL
[3]; strain MRSA 14-4
  MIC (anti-bacterial activity): < 0.008 µg/mL
[3]; strain MRSA 14-5
  MIC (anti-bacterial activity): < 0.008 µg/mL
[3]; [13]
  MIC (anti-bacterial activity): < 0.008 µg/mL
[4]; strain MRSE 14-2
  MIC (anti-bacterial activity): < 0.008 µg/mL
[4]; strain MRSE 14-3
  MIC (anti-bacterial activity): < 0.008 µg/mL
[4]; strain MRSE 14-4
  MIC (anti-bacterial activity): < 0.008 µg/mL
[5]; strain MSSA 14-1
  MIC (anti-bacterial activity): < 0.008 µg/mL
[5]; strain MSSA 14-2
  MIC (anti-bacterial activity): < 0.008 µg/mL
[5]; strain MSSA 14-3
  MIC (anti-bacterial activity): < 0.008 µg/mL
[5]; strain MSSA 14-4
  MIC (anti-bacterial activity): < 0.008 µg/mL
[6]; strain MSSE 14-1
  MIC (anti-bacterial activity): < 0.008 µg/mL
[6]; strain MSSE 14-2
  MIC (anti-bacterial activity): < 0.008 µg/mL
[6]; strain MSSE 14-3
  MIC (anti-bacterial activity): < 0.008 µg/mL
[6]; strain MSSE 14-4
  MIC (anti-bacterial activity): < 0.008 µg/mL
[7]; concentration of 30 μM, 72 hours, CCK-8, 30 µM
  HCT116 inhibition rate/%: 86%
[10]
  inhibition at 30 µM: 26%
[11]
  Inhibition of proliferation, Liver cancer BEL-7402: 74%
[12]; Homo sapiens, MGC-803, 72 h
  inhibition at 30 µM: > 50%
[12]; 72 hours, 30 µM
  Inhibition of proliferation, Gastric cancer MGC-803: 66%
[8]
  MetHb % (n = 3): 2.25 ± 0.02%
  probability of methemoglobin formation in blood compared with the control drugs LBM415 and GSK1322322: lower probability of methemoglobin formation in blood
[9]; lowest MIC reached
  MIC: < 0.008 µg/mL
